{
  "source": "the supplement of paper PMC11208160",
  "data": [
    {"test": "recombinant UMI read abundance after kanamycin selection (control-corrected) (log10(CPM+1)); higher = more efficient recombination; extreme values may be limits of the assay; sequences stand for … in AGTGCAGAGAAAATCGGCCAGTTTTCTCTGCCTGCAGTCCGCATGCCGTGGGACCCCTTGGGTTCTAACCTGTTGCCTAGATTTATGCAGCGGACTGCCTTTCTCCCAAAGTGATAAACCGG…AGGTTGGTTTCACT; site = the 11-nt donor", "outline": "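Pooled Escherichia coli screen of donor and donor-binding-loop pairs for the IS621 bridge recombinase. Each pair sits with a 12-nt UMI on a plasmid carrying a promoterless kanamycin gene. The library was co-electroporated with a target plasmid encoding a fixed target and T7-inducible recombinase, then plated with IPTG (0.07 mM) plus kanamycin, or unselected, each in two replicates. Recombinant UMIs were PCR-amplified across the donor–target junction and sequenced. Counts became CPM, averaged over replicates, scaled by control-derived factors and reported as log10(CPM+1).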", "values": [
      {"sequence": "TGACCATCATGGACCGGTTTTCCCGGTAATCCGTATTTGCT (site TGACCATCTAG)", "recombinant UMI read abundance (log10)": 2.24},
      {"sequence": "TGACCGGCATGGACCGGTTTTCCCGGTAATCCGTATTTGGG (site TGACCGGCTCC)", "recombinant UMI read abundance (log10)": 0.00617},
      {"sequence": "TGACGTACATGGACCGGTTTTCCCGGTAATCCGTATTTGTC (site TGACGTACTGA)", "recombinant UMI read abundance (log10)": 0.893},
      {"sequence": "TGAGAACCATGGACCGGTTTTCCCGGTAATCCGTATTTGAT (site GACATTGCTCA)", "recombinant UMI read abundance (log10)": 0.0061},
      {"sequence": "TGAGCCTCATGGACCGGTTTTCCCGGTAATCCGTATTTGAC (site TGAGCCTCTGT)", "recombinant UMI read abundance (log10)": 2.84},
      {"sequence": "TGAGCTGCATGGACCGGTTTTCCCGGTAATCCGTATTTGTG (site TAAGCTGCTCA)", "recombinant UMI read abundance (log10)": 0.038},
      {"sequence": "TGAGCTGCATGGACCGGTTTTCCCGGTAATCCGTATTTGTG (site TCAGCTGCTCA)", "recombinant UMI read abundance (log10)": 0},
      {"sequence": "TGAGCTGCATGGACCGGTTTTCCCGGTAATCCGTATTTGTG (site TGAGCTGCTCA)", "recombinant UMI read abundance (log10)": 0.639},
      {"sequence": "TGAGCTGCATGGACCGGTTTTCCCGGTAATCCGTATTTGTG (site TTAGCTGCTCA)", "recombinant UMI read abundance (log10)": 0.0107},
      {"sequence": "TGAGGTCCATGGACCGGTTTTCCCGGTAATCCGTATTTGGA (site TGAGGTCCTTC)", "recombinant UMI read abundance (log10)": 0.172},
      {"sequence": "TGAGTAGCATGGACCGGTTTTCCCGGTAATCCGTATTTGTA (site TGAGTAGCTTA)", "recombinant UMI read abundance (log10)": 2.48},
      {"sequence": "TGAGTGGCATGGACCGGTTTTCCCGGTAATCCGTATTTGGT (site AGAGTGGCTAC)", "recombinant UMI read abundance (log10)": 0.339},
      {"sequence": "TGAGTGGCATGGACCGGTTTTCCCGGTAATCCGTATTTGGT (site CGAGTGGCTAC)", "recombinant UMI read abundance (log10)": 0.605},
      {"sequence": "TGAGTGGCATGGACCGGTTTTCCCGGTAATCCGTATTTGGT (site GGAGTGGCTAC)", "recombinant UMI read abundance (log10)": 0.0161},
      {"sequence": "TGAGTGGCATGGACCGGTTTTCCCGGTAATCCGTATTTGGT (site TGAGTGGCTAC)", "recombinant UMI read abundance (log10)": 0.902},
      {"sequence": "TGAGTTGCATGGACCGGTTTTCCCGGTAATCCGTATTTGCA (site TGAGTTGCTTG)", "recombinant UMI read abundance (log10)": 1.47},
      {"sequence": "TGATAGCCATGGACCGGTTTTCCCGGTAATCCGTATTTGAG (site TGATAGCCTCT)", "recombinant UMI read abundance (log10)": 0.0234},
      {"sequence": "TGATAGCCATGGACCGGTTTTCCCGGTAATCCGTATTTGGA (site TGATAGCCTTC)", "recombinant UMI read abundance (log10)": 0.0136},
      {"sequence": "TGATAGGCATGGACCGGTTTTCCCGGTAATCCGTATTTGGT (site TGATAGGCTAC)", "recombinant UMI read abundance (log10)": 0.902},
      {"sequence": "TGATAGGCATGGACCGGTTTTCCCGGTAATCCGTATTTGGT (site TGCTAGGCTAC)", "recombinant UMI read abundance (log10)": 0.0143},
      {"sequence": "TGATAGGCATGGACCGGTTTTCCCGGTAATCCGTATTTGGT (site TGGTAGGCTAC)", "recombinant UMI read abundance (log10)": 0.0189},
      {"sequence": "TGATAGGCATGGACCGGTTTTCCCGGTAATCCGTATTTGGT (site TGTTAGGCTAC)", "recombinant UMI read abundance (log10)": 0.02},
      {"sequence": "TGATCATCATGGACCGGTTTTCCCGGTAATCCGTATTTGGT (site CGATCATCTAG)", "recombinant UMI read abundance (log10)": 0},
      {"sequence": "TGATCATCATGGACCGGTTTTCCCGGTAATCCGTATTTGGT (site TGATCATCTAC)", "recombinant UMI read abundance (log10)": 1.42},
      {"sequence": "TGCAAGTCATGGACCGGTTTTCCCGGTAATCCGTATTTGGC (site TGCAAGTCTGC)", "recombinant UMI read abundance (log10)": 2.11},
      {"sequence": "TGCACACCATGGACCGGTTTTCCCGGTAATCCGTATTTGAC (site TGAACACCTGT)", "recombinant UMI read abundance (log10)": 0},
      {"sequence": "TGCACACCATGGACCGGTTTTCCCGGTAATCCGTATTTGAC (site TGCACACCTGT)", "recombinant UMI read abundance (log10)": 0.51},
      {"sequence": "TGCACACCATGGACCGGTTTTCCCGGTAATCCGTATTTGAC (site TGGACACCTGT)", "recombinant UMI read abundance (log10)": 0},
      {"sequence": "TGCACACCATGGACCGGTTTTCCCGGTAATCCGTATTTGAC (site TGTACACCTGT)", "recombinant UMI read abundance (log10)": 0},
      {"sequence": "TGCAGGGCATGGACCGGTTTTCCCGGTAATCCGTATTTGCC (site TGCAGGGCTGG)", "recombinant UMI read abundance (log10)": 1.82},
      {"sequence": "TGCAGTGCATGGACCGGTTTTCCCGGTAATCCGTATTTGTT (site TGCAGTGCTAA)", "recombinant UMI read abundance (log10)": 0.416},
      {"sequence": "TGCCCCACATGGACCGGTTTTCCCGGTAATCCGTATTTGAC (site TGCCCCACTGT)", "recombinant UMI read abundance (log10)": 1.39},
      {"sequence": "TGCCGGCCATGGACCGGTTTTCCCGGTAATCCGTATTTGCC (site TGCCGGCCTGG)", "recombinant UMI read abundance (log10)": 0},
      {"sequence": "TGCCGGCCATGGACCGGTTTTCCCGGTAATCCGTATTTGGA (site TGCCGGCCTTC)", "recombinant UMI read abundance (log10)": 0.0137}
    ]}
  ]
}
